Laboratory results from ChEMBL document CHEMBL1641516, “Preparation and evaluation of trisubstituted pyrimidines as phosphatidylinositol 3-kinase inhibitors. 3-Hydroxyphenol analogues and bioisosteric replacements” (Bioorg Med Chem, 2011).

Columns and labels:
[1] = target: Phosphatidylinositol 4,5-bisphosphate 3-kinase catalytic subunit alpha isoform (Homo sapiens, UniProt P42336)
Description: Inhibition of human recombinant PI3K p110alpha after 1 hr by radiometric scintillation proximity assay

[2] = tested on: IGROV-1; test: Cell cycle arrest in human IGROV1 cells assessed as accumulation at G1 phase at 1 fold IC50 after 24 hrs by flow cytometry; assay type: functional
[3] = tested on: IGROV-1; test: Cell cycle arrest in human IGROV1 cells assessed as accumulation at G2/M phase at 1 fold IC50 after 24 hrs by flow cytometry; assay type: functional
[4] = tested on: IGROV-1; test: Cell cycle arrest in human IGROV1 cells assessed as accumulation at S phase at 1 fold IC50 after 24 hrs by flow cytometry; assay type: functional
[5] = Metabolic stability in mouse liver microsomes assessed as compound metabolized at […] after 30 mins by MS analysis; assay type: ADME, Microsome; conditions: read-out: Activity
[6] = tested on: IGROV-1; test: Cell cycle arrest in human IGROV1 cells assessed as accumulation at G1 phase at 5 fold IC50 after 24 hrs by flow cytometry; assay type: functional
[7] = Metabolic stability in mouse liver microsomes assessed as compound metabolized at […] after 15 mins by MS analysis; assay type: ADME, Microsome; conditions: read-out: Activity
[8] = tested on: IGROV-1; test: cells; conditions: Homo sapiens, IGROV-1, 96 h
Description: Cytotoxicity against human IGROV1 cells after 96 hrs by SRB assay

[9] = target: Phosphatidylinositol 4,5-bisphosphate 3-kinase catalytic subunit gamma isoform (Homo sapiens, UniProt P48736)
Description: Inhibition of human recombinant PI3K p110gamma after 1 hr by radiometric scintillation proximity assay

[10] = target: Phosphatidylinositol 4,5-bisphosphate 3-kinase catalytic subunit beta isoform (Homo sapiens, UniProt P42338); test: Inhibition of human recombinant PI3K p110beta after 1 hr by radiometric scintillation proximity assay
[11] = tested on: IGROV-1; test: Cell cycle arrest in human IGROV1 cells assessed as accumulation at S phase at 5 fold IC50 after 24 hrs by flow cytometry; assay type: functional
[12] = tested on: IGROV-1; test: Cell cycle arrest in human IGROV1 cells assessed as accumulation at G2/M phase at 5 fold IC50 after 24 hrs by flow cytometry; assay type: functional

Phosphatidylinositol 4,5-bisphosphate 3-kinase catalytic subunit beta isoform, sequence (P42338 whole entry, canonical isoform): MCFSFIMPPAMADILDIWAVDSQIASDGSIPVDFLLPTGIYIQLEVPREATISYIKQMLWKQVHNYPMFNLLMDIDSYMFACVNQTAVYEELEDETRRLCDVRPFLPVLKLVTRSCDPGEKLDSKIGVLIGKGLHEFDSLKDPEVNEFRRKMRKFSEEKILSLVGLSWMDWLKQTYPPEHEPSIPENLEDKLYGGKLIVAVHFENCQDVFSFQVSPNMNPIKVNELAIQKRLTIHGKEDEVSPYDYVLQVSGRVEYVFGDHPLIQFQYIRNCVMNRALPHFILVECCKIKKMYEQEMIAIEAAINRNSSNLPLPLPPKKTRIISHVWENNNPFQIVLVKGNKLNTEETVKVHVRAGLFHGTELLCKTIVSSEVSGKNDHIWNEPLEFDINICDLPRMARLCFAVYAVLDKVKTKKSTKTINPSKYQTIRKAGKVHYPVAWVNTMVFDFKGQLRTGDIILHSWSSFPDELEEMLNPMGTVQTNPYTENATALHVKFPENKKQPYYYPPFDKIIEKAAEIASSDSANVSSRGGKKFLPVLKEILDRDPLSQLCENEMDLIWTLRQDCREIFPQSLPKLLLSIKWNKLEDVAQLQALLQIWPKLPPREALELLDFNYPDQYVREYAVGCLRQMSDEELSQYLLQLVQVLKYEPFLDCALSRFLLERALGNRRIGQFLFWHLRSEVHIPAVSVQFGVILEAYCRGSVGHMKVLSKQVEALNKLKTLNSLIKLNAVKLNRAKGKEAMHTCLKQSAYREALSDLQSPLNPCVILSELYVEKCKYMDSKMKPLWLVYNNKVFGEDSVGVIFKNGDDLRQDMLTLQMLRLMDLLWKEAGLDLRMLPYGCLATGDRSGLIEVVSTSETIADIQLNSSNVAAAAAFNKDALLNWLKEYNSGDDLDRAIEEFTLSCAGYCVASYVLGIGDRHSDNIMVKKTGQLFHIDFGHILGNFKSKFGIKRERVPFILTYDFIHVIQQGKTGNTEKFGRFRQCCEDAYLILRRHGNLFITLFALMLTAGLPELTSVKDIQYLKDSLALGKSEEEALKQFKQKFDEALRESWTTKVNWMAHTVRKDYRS
Phosphatidylinositol 4,5-bisphosphate 3-kinase catalytic subunit alpha isoform, sequence (P42336 whole entry, canonical isoform): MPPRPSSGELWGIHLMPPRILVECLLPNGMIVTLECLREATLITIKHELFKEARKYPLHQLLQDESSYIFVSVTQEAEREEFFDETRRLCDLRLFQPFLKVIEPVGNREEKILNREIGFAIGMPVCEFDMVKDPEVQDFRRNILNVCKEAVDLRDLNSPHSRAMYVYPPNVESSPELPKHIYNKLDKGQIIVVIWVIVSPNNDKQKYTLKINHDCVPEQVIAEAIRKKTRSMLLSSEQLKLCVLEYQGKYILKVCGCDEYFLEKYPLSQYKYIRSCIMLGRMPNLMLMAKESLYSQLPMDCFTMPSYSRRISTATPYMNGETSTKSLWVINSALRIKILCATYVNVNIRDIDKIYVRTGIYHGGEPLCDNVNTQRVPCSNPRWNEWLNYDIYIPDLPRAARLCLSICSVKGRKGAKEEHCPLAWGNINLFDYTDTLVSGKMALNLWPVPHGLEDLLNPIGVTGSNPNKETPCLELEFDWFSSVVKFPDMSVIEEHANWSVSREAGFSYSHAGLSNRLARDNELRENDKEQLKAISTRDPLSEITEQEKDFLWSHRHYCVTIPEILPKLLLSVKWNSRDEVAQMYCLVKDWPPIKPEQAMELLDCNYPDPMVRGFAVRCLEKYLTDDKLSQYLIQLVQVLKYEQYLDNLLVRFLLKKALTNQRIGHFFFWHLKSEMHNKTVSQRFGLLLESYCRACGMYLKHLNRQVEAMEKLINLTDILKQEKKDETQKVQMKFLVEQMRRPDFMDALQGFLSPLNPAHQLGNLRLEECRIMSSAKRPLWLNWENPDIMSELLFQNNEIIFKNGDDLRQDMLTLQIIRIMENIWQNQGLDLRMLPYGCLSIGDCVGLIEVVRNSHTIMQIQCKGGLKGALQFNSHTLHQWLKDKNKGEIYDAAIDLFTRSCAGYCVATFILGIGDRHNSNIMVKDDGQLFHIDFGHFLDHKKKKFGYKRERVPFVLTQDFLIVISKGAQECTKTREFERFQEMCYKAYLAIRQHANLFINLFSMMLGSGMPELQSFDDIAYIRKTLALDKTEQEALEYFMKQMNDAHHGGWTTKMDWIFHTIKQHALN
Phosphatidylinositol 4,5-bisphosphate 3-kinase catalytic subunit gamma isoform, sequence (P48736 whole entry, canonical isoform): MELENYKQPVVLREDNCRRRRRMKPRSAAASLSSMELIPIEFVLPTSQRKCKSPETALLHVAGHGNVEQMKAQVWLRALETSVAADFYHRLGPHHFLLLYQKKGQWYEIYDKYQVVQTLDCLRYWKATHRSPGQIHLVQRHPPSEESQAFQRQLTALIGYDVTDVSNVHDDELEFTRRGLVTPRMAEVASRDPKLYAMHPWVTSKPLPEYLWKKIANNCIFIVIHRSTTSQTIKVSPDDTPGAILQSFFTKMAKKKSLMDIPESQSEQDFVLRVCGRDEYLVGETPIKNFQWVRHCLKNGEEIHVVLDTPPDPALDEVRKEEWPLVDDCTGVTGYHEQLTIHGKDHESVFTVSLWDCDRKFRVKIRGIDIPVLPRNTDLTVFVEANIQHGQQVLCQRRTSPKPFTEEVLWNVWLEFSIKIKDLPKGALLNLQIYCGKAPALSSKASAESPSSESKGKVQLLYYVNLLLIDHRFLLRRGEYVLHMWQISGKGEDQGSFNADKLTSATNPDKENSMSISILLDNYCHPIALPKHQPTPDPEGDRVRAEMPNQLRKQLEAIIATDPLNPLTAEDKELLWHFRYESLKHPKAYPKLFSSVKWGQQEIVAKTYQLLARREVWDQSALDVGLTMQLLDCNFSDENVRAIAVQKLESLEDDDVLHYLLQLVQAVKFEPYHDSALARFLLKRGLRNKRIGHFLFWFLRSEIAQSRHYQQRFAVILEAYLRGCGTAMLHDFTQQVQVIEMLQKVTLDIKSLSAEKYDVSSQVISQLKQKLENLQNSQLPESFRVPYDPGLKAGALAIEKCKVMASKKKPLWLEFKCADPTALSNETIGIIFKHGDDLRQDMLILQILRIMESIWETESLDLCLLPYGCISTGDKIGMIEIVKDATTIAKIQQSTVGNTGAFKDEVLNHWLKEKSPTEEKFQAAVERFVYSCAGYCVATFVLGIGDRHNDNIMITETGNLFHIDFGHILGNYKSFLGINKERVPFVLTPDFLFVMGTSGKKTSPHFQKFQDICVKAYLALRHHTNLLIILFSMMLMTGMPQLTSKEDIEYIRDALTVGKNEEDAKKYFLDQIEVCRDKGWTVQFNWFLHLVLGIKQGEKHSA

Structure (SMILES) | IC50 [1] [nM] | GI50 [8] [nM] | other results
c1ccc(COc2cccc(-c3nc(-c4ccccn4)cc(N4CCOCC4)n3)c2)cc1 | > 10000 |  | 
c1ccc(COc2cccc(-c3nc(-c4cccnc4)cc(N4CCOCC4)n3)c2)cc1 | > 10000 |  | 
c1ccc(COc2cccc(-c3nc(-c4ccncc4)cc(N4CCOCC4)n3)c2)cc1 | > 10000 |  | 
Clc1ccc(-c2cc(N3CCOCC3)nc(-c3cccc(OCc4ccccc4)c3)n2)cc1 | > 10000 |  | 
Clc1ccc(-c2cc(N3CCOCC3)nc(-c3cccc(OCc4ccccc4)c3)n2)cc1Cl | > 10000 |  | 
Oc1cccc(-c2nc(-c3ccccn3)cc(N3CCOCC3)n2)c1 | 62 | 370 | Activity [2]: 76%; Activity [3]: 3%; Activity [4]: 20%; metabolised at 0.5 h [5]: 57%; Activity [6]: 84%; metabolised at 0.25 h [7]: 39%; IC50 [9]: 44 nM; IC50 [10]: 100 nM; Activity [11]: 5%; Activity [12]: 10%
Oc1cccc(-c2nc(-c3cccnc3)cc(N3CCOCC3)n2)c1 | 260 | 630 | IC50 [9]: 340 nM; IC50 [10]: 440 nM
Oc1cccc(-c2nc(-c3ccncc3)cc(N3CCOCC3)n2)c1 | 140 | 1200 | IC50 [9]: 150 nM; IC50 [10]: 200 nM
Oc1cccc(-c2nc(-c3ccc(Cl)cc3)cc(N3CCOCC3)n2)c1 | 690 |  | 
Oc1cccc(-c2nc(-c3ccc(Cl)c(Cl)c3)cc(N3CCOCC3)n2)c1 | 200 |  | 
Oc1cccc(-c2cc(NCc3ccccn3)nc(N3CCOCC3)n2)c1 | 900 |  | IC50 [9]: 7600 nM; IC50 [10]: 2300 nM
Oc1cccc(-c2cc(NCc3ccncc3)nc(N3CCOCC3)n2)c1 | 1000 |  | 
Oc1cccc(-c2cc(NCCc3ccccn3)nc(N3CCOCC3)n2)c1 | 250 | 2200 | IC50 [9]: 830 nM; IC50 [10]: 2600 nM
Oc1cccc(-c2cc(NCCc3cccnc3)nc(N3CCOCC3)n2)c1 | 260 | 1200 | IC50 [9]: 960 nM; IC50 [10]: 1900 nM
Oc1cccc(-c2cc(NCCc3ccncc3)nc(N3CCOCC3)n2)c1 | 140 | 700 | Activity [2]: 75%; Activity [3]: 4%; Activity [4]: 21%; metabolised at 0.5 h [5]: 71%; Activity [6]: 87%; metabolised at 0.25 h [7]: 54%; IC50 [9]: 740 nM; IC50 [10]: 1600 nM; Activity [11]: 2%; Activity [12]: 10%
Oc1cccc(-c2cc(N3CCOCC3)nc(NCc3ccccn3)n2)c1 | 1000 |  | 
Oc1cccc(-c2cc(N3CCOCC3)nc(NCc3cccnc3)n2)c1 | 880 |  | 
Oc1cccc(-c2cc(N3CCOCC3)nc(NCc3ccncc3)n2)c1 | 860 |  | 
Oc1cccc(-c2cc(N3CCOCC3)nc(NCCc3ccccn3)n2)c1 | 180 | 1200 | IC50 [9]: 380 nM; IC50 [10]: 5200 nM
Oc1cccc(-c2cc(N3CCOCC3)nc(NCCc3cccnc3)n2)c1 | 250 | 750 | 
Oc1cccc(-c2cc(N3CCOCC3)nc(NCCc3ccncc3)n2)c1 | 230 | 950 | 
Oc1cccc(-c2cc(OCc3ccccn3)nc(N3CCOCC3)n2)c1 | 110 | 1500 | IC50 [9]: 730 nM; IC50 [10]: 370 nM
Oc1cccc(-c2cc(N3CCOCC3)nc(OCc3ccccn3)n2)c1 | 860 | 2500 | 
c1ccc(CCNc2cc(-c3ccc4cc[nH]c4c3)nc(N3CCOCC3)n2)nc1 | > 10000 | 12000 | 

Structure (SMILES) | IC50 [1] [nM] | GI50 [8] [nM] | other results
c1cncc(CCNc2cc(-c3ccc4cc[nH]c4c3)nc(N3CCOCC3)n2)c1 | > 10000 | 6000 | 
c1cc(CCNc2cc(-c3ccc4cc[nH]c4c3)nc(N3CCOCC3)n2)ccn1 | > 10000 | 14500 | 
CS(=O)(=O)Nc1cccc(-c2cc(NCCc3ccccn3)nc(N3CCOCC3)n2)c1 | > 10000 | 15000 | 
CS(=O)(=O)Nc1cccc(-c2cc(NCCc3cccnc3)nc(N3CCOCC3)n2)c1 | > 10000 | 11600 | 
CS(=O)(=O)Nc1cccc(-c2cc(NCCc3ccncc3)nc(N3CCOCC3)n2)c1 | > 10000 | 15000 | 
c1ccc(CCNc2cc(-c3cccc4[nH]ncc34)nc(N3CCOCC3)n2)nc1 | 1300 | 7800 | metabolised at 0.5 h [5]: 84%; metabolised at 0.25 h [7]: 58%
c1cncc(CCNc2cc(-c3cccc4[nH]ncc34)nc(N3CCOCC3)n2)c1 | 660 | 2900 | metabolised at 0.5 h [5]: 98%; metabolised at 0.25 h [7]: 66%
c1cc(-c2cc(NCCc3ccncc3)nc(N3CCOCC3)n2)c2cn[nH]c2c1 | 770 | 2700 | metabolised at 0.5 h [5]: 68%; metabolised at 0.25 h [7]: 37%
c1ccc(COc2cc(-c3ccc4cc[nH]c4c3)nc(N3CCOCC3)n2)nc1 | > 10000 | 6000 | 
CS(=O)(=O)Nc1ccc(-c2cc(OCc3ccccn3)nc(N3CCOCC3)n2)cc1 | > 10000 | 16000 | 
c1ccc(COc2cc(-c3cccc4[nH]ncc34)nc(N3CCOCC3)n2)nc1 | 500 | 1900 | metabolised at 0.5 h [5]: 66%; metabolised at 0.25 h [7]: 44%
c1cncc(CCNc2nc(-c3ccc4cc[nH]c4c3)cc(N3CCOCC3)n2)c1 | 7200 | 4200 | 
c1cc(CCNc2nc(-c3ccc4cc[nH]c4c3)cc(N3CCOCC3)n2)ccn1 | > 10000 | 3000 | metabolised at 0.5 h [5]: 60%; metabolised at 0.25 h [7]: 38%
CS(=O)(=O)Nc1cccc(-c2cc(N3CCOCC3)nc(NCCc3ccccn3)n2)c1 | > 10000 | 11500 | 
CS(=O)(=O)Nc1cccc(-c2cc(N3CCOCC3)nc(NCCc3cccnc3)n2)c1 | > 10000 | 16200 | 
CS(=O)(=O)Nc1cccc(-c2cc(N3CCOCC3)nc(NCCc3ccncc3)n2)c1 | 9100 | 6200 | metabolised at 0.5 h [5]: 53%; metabolised at 0.25 h [7]: 33%
c1ccc(CCNc2nc(-c3cccc4[nH]ncc34)cc(N3CCOCC3)n2)nc1 | 1100 | 2700 | 
c1cncc(CCNc2nc(-c3cccc4[nH]ncc34)cc(N3CCOCC3)n2)c1 | 820 | 2900 | 
c1cc(-c2cc(N3CCOCC3)nc(NCCc3ccncc3)n2)c2cn[nH]c2c1 | 440 | 1500 | metabolised at 0.5 h [5]: 74%; metabolised at 0.25 h [7]: 49%
c1ccc(COc2nc(-c3ccc4cc[nH]c4c3)cc(N3CCOCC3)n2)nc1 | 5200 | 9000 | 
CS(=O)(=O)Nc1ccc(-c2cc(N3CCOCC3)nc(OCc3ccccn3)n2)cc1 | 6200 | 13500 | 
c1ccc(COc2nc(-c3cccc4[nH]ncc34)cc(N3CCOCC3)n2)nc1 | 1350 | 2300 | 
O=c1cc(N2CCOCC2)oc2c(-c3ccccc3)cccc12 [LY-294002] |  |  | Activity [2]: 72%; Activity [3]: 7%; Activity [4]: 21%; Activity [6]: 82%; Activity [11]: 3%; Activity [12]: 15%
